In the supplement of paper PMC6045584:
± gives the standard deviation of the averaged measurements.

Legend:
GEFITINIB = compound: COc1cc2ncnc(Nc3ccc(F)c(Cl)c3)c2cc1OCCCN1CCOCC1 [GEFITINIB]; assay: surviving fraction relative to DMSO-only wells; higher = less growth inhibition; details: exposure time: 5 days
Method in brief: (§1)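 Continuous five-day exposure to inhibitors at 0.5, 1, 5, 10, 50, 100, 500 and 1000 nM started 24 hours after log-phase tumour cell lines were seeded at 250–500 cells per well in 384-well plates. Luminescence was read after 10 minutes at room temperature. Viability is given as surviving fraction, meaning CellTiter-Glo luminescence normalised to the median of DMSO-only wells.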

CELECOXIB = compound: Cc1ccc(-c2cc(C(F)(F)F)nn2-c2ccc(S(N)(=O)=O)cc2)cc1 [CELECOXIB]; assay: as above; details: exposure time: 5 days
Method in brief: as §1

Test System | surviving fraction (GEFITINIB; 0.5 nM) | surviving fraction (GEFITINIB; 1 nM) | surviving fraction (GEFITINIB; 5 nM) | surviving fraction (GEFITINIB; 10 nM) | surviving fraction (GEFITINIB; 50 nM) | surviving fraction (GEFITINIB; 100 nM) | surviving fraction (GEFITINIB; 500 nM) | surviving fraction (GEFITINIB; 1000 nM) | surviving fraction (CELECOXIB; 0.5 nM) | surviving fraction (CELECOXIB; 1 nM) | surviving fraction (CELECOXIB; 5 nM) | surviving fraction (CELECOXIB; 10 nM) | surviving fraction (CELECOXIB; 50 nM) | surviving fraction (CELECOXIB; 100 nM) | surviving fraction (CELECOXIB; 500 nM) | surviving fraction (CELECOXIB; 1000 nM)
SYO1 SYNOVIAL | 1.05 ± 0.068 | 0.97 ± 0.049 | 0.982 ± 0.068 | 0.98 ± 0.012 | 0.984 ± 0.017 | 0.898 ± 0.024 | 1 ± 0.021 | 0.935 ± 0.024 | 0.952 ± 0.052 | 0.998 ± 0.055 | 0.985 ± 0.065 | 0.9986 ± 0.0091 | 0.974 ± 0.022 | 0.955 ± 0.043 | 0.975 ± 0.07 | 1.04 ± 0.061
U2OS BONE | 1.03 ± 0.057 | 0.9987 ± 0.0084 | 1.03 ± 0.015 | 0.989 ± 0.0078 | 1.04 ± 0.027 | 1.04 ± 0.031 | 0.959 ± 0.0095 | 0.98 ± 0.048 | 0.98 ± 0.055 | 1.03 ± 0.032 | – | 1.03 ± 0.048 | 1.05 ± 0.032 | 1.09 ± 0.016 | 1.01 ± 0.016 | 1 ± 0.043
ASKA SYNOVIAL | 1.13 ± 0.052 | 1.11 ± 0.06 | 1.05 ± 0.085 | 1.16 ± 0.051 | 1.19 ± 0.077 | 1.16 ± 0.073 | 1.08 ± 0.053 | 1.1 ± 0.058 | 1.16 ± 0.098 | 1.15 ± 0.074 | 1.2 ± 0.05 | 1.19 ± 0.048 | 1.19 ± 0.12 | 1.21 ± 0.064 | 1.15 ± 0.073 | 1.12 ± 0.039
BT549 BREAST | 1.1 ± 0.18 | 1.03 ± 0.073 | 1.04 ± 0.13 | 0.946 ± 0.094 | 1.17 ± 0.14 | 1.21 ± 0.046 | 1.057 ± 0.007 | 1.11 ± 0.15 | 1.02 ± 0.08 | 1.06 ± 0.088 | 1.07 ± 0.16 | 1.24 ± 0.062 | 1.15 ± 0.068 | 1.28 ± 0.067 | 1.18 ± 0.03 | 1.15 ± 0.058
HOS BONE | 1.01 ± 0.02 | 1.034 ± 0.0087 | 1.041 ± 0.01 | 1.04 ± 0.032 | 1.06 ± 0.033 | 1.07 ± 0.031 | 1.01 ± 0.021 | 0.973 ± 0.013 | 1 ± 0.013 | 1.028 ± 0.0093 | 1.02 ± 0.012 | 1.018 ± 0.0023 | 1.06 ± 0.028 | 1.08 ± 0.031 | 1.06 ± 0.022 | 1.024 ± 0.007
HOSMNG BONE | 1.01 ± 0.035 | 0.993 ± 0.0089 | 0.971 ± 0.092 | 1.03 ± 0.073 | 1.05 ± 0.085 | 1.14 ± 0.026 | 1.09 ± 0.091 | 1.07 ± 0.021 | 0.941 ± 0.06 | 0.968 ± 0.093 | 0.923 ± 0.047 | 0.879 ± 0.11 | 1.01 ± 0.059 | 1.08 ± 0.098 | 1.05 ± 0.13 | 1.02 ± 0.072
SNU475 LIVER | 1.05 ± 0.096 | 1.05 ± 0.05 | 1.01 ± 0.016 | 1.03 ± 0.05 | 1.02 ± 0.045 | 0.979 ± 0.038 | 0.939 ± 0.021 | 0.898 ± 0.028 | 1.06 ± 0.039 | 1.08 ± 0.054 | 1.02 ± 0.03 | 1.05 ± 0.033 | 1.07 ± 0.026 | 1.02 ± 0.046 | 1.06 ± 0.03 | 1.11 ± 0.026
HCC202 BREAST | 1.4 ± 0.62 | 1.2 ± 0.23 | 1.35 ± 0.21 | 1.06 ± 0.14 | 1.32 ± 0.14 | 1.11 ± 0.37 | 0.542 ± 0.13 | 0.345 ± 0.013 | 1.15 ± 0.041 | 1.14 ± 0.04 | 1.2 ± 0.33 | 1.04 ± 0.09 | 1.06 ± 0.27 | 1.13 ± 0.18 | 1.36 ± 0.39 | 1.12 ± 0.16
CHLA90 AUTONOMIC GANGLIA | 0.939 ± 0.022 | 0.905 ± 0.089 | 0.873 ± 0.052 | 0.848 ± 0.056 | 0.902 ± 0.069 | 0.876 ± 0.041 | 0.881 ± 0.044 | 0.801 ± 0.066 | 1.01 ± 0.048 | 0.999 ± 0.058 | 0.99 ± 0.054 | 1.03 ± 0.12 | 1.03 ± 0.088 | 1 ± 0.15 | 0.999 ± 0.058 | 1.08 ± 0.026
HCT15 LARGE INTESTINE | 1.05 ± 0.033 | 1.04 ± 0.017 | 0.982 ± 0.025 | 1.04 ± 0.054 | 1.07 ± 0.04 | 1.046 ± 0.0061 | 1.04 ± 0.039 | 1.07 ± 0.052 | 1.02 ± 0.062 | 1.03 ± 0.031 | 1.06 ± 0.039 | 1.04 ± 0.022 | 1.07 ± 0.061 | 1.07 ± 0.077 | 1.09 ± 0.053 | 1.1 ± 0.044
